Structures can show the parent of a compound that is named as a salt.
Each molecule was assayed against T1, HCV polymerase (Hepatitis C virus genotype 1b, UniProt P26663) (assay: biochemical).
T1 construct: a region encoding NS5B (J Virol 1991 March, 65(3), 1105-13, 544 amino acids after deletion of 47 amino acids on the C-terminal); 6xHis (C); made in house; host or cells: Escherichia coli
Set-up: species or system HCV BK strain
Summary of the method: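 His-tagged NS5B (BK strain, 47-aa C-terminal deletion, E. coli-expressed) at 0.5 μg/ml copied 5 μg/ml run-off RNA bearing the HCV 3′ UTR with 2 μM UTP plus [3H]UTP, 50 μM ATP/GTP, in pH 7.5 Tris with 5 mM MgCl2, 25 °C, 90 min. TCA-precipitated RNA was counted and IC50 calculated.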

T1 sequence (P26663 2420-2963): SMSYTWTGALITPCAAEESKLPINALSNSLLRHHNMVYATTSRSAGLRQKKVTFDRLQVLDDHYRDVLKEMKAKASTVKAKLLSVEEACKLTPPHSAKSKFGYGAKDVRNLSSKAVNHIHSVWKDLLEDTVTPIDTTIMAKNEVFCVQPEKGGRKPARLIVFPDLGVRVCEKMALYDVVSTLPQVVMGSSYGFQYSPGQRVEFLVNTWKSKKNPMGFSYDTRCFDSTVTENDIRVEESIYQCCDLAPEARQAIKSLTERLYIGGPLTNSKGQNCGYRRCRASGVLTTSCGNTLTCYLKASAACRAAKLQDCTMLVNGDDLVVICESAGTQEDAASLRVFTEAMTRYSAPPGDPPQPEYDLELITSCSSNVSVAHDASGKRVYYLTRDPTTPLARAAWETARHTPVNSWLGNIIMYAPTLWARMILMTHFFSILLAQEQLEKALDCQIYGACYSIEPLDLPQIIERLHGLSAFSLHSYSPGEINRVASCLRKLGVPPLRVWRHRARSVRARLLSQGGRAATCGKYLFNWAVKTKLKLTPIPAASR

SMILES	IC50 [µM]
Cc1ccc2c(c1)N(CCN1CCC[C@@H](CCN(C)C(=O)N(C)C)C1)CCn1c-2c(C2CCCCC2)c2ccc(C(=O)O)cc21 [Example 1-559, 13-cyclohexyl-3-methyl-5-(2-{(S)-3-[2-(trimethylureido)ethyl]piperidin-1-yl}ethyl)-6,7-dihydro-5H-benzo[5,6][1,4]diazepino[7,1-a]indole-10-carboxylic acid dihydrochloride]	< 0.1
CN(C)CCN1CCn2c(c(C3CCCCC3)c3ccc(C(=O)O)cc32)-c2ccc(OCc3ccc(Cl)s3)cc21 [Example 1-560, 3-(5-chlorothiophen-2-ylmethoxy)-13-cyclohexyl-5-(2-dimethylaminoethyl)-6,7-dihydro-5H-benzo[5,6][1,4]diazepino[7,1-a]indole-10-carboxylic acid dihydrochloride]	< 0.1
Cc1ccc2c(c1)N(CCN1CCSCC1)CCn1c-2c(C2CCCCC2)c2ccc(C(=O)O)cc21 [Example 1-561, 13-cyclohexyl-3-methyl-5-[2-(thiomorpholin-4-yl)ethyl]-6,7-dihydro-5H-benzo[5,6][1,4]diazepino[7,1-a]indole-10-carboxylic acid dihydrochloride]	< 0.1
Cc1ccc2c(c1)N(C1CCNCC1)CCn1c-2c(C2CCCCC2)c2ccc(C(=O)O)cc21 [Example 1-562, 13-cyclohexyl-3-methyl-5-(piperidin-4-yl)-6,7-dihydro-5H-benzo[5,6][1,4]diazepino[7,1-a]indole-10-carboxylic acid dihydrochloride]	< 0.1
CC(=O)N1CCC(N2CCn3c(c(C4CCCCC4)c4ccc(C(=O)O)cc43)-c3ccc(C)cc32)CC1 [Example 1-563, 5-(1-acetylpiperidin-4-yl)-13-cyclohexyl-3-methyl-6,7-dihydro-5H-benzo[5,6][1,4]diazepino[7,1-a]indole-10-carboxylic acid]	< 0.1
Cc1ccc2c(c1)N(C1CCN(C)CC1)CCn1c-2c(C2CCCCC2)c2ccc(C(=O)O)cc21 [Example 1-564, 13-cyclohexyl-3-methyl-5-(1-methylpiperidin-4-yl)-6,7-dihydro-5H-benzo[5,6][1,4]diazepino[7,1-a]indole-10-carboxylic acid dihydrochloride]	< 0.1
CN(C)CCN1CCn2c(c(C3CCCCC3)c3ccc(C(=O)O)cc32)-c2ccc(OCc3ccncc3)cc21 [Example 1-565, 13-cyclohexyl-5-(2-dimethylaminoethyl)-3-(pyridin-4-ylmethoxy)-6,7-dihydro-5H-benzo[5,6][1,4]diazepino[7,1-a]indole-10-carboxylic acid trihydrochloride]	< 0.1
Cc1ccc2c(c1)N(CCN1CCC[C@@H](CCN3CCCC3=O)C1)CCn1c-2c(C2CCCCC2)c2ccc(C(=O)O)cc21 [Example 1-566, 13-cyclohexyl-3-methyl-5-(2-{(S)-3-[2-(2-oxopyrrolidin-1-yl)ethyl]piperidin-1-yl]ethyl}-6,7-dihydro-5H-benzo[5,6][1,4]diazepino[7,1-a]indole-10-carboxylic acid dihydrochloride]	< 0.1
Cc1ccc2c(c1)N(C)C(C)Cn1c-2c(C2CCCCC2)c2ccc(C(=O)O)cc21 (centres unmarked) [Example 1-567, 13-cyclohexyl-3,5,6-trimethyl-6,7-dihydro-5H-benzo[5,6][1,4]diazepino[7,1-a]indole-10-carboxylic acid]	< 0.1
COc1ccc2c(c1)N(CCN1CCSCC1)CCn1c-2c(C2CCCCC2)c2ccc(C(=O)O)cc21 [Example 1-568, 13-cyclohexyl-3-methoxy-5-[2-(thiomorpholin-4-yl)ethyl]-6,7-dihydro-5H-benzo[5,6][1,4]diazepino[7,1-a]indole-10-carboxylic acid dihydrochloride]	< 0.1
Cc1ccc2c(c1)N(C)CCn1c-2c(C2CCCCC2)c2ccc(C(=O)O)c(C)c21 [Example 1-569, 13-cyclohexyl-3,5,9-trimethyl-6,7-dihydro-5H-benzo[5,6][1,4]diazepino[7,1-a]indole-10-carboxylic acid]	0.1 to 1
COCC[C@@H]1CCCN(C(=O)CN2CCn3c(c(C4CCCCC4)c4ccc(C(=O)O)cc43)-c3ccc(C)cc32)C1 [Example 1-570, 13-cyclohexyl-5-{2-[(S)-3-(2-methoxyethyl)piperidin-1-yl]-2-oxoethyl}-3-methyl-6,7-dihydro-5H-benzo[5,6][1,4]diazepino[7,1-a]indole-10-carboxylic acid]	< 0.1
Cc1ccc2c(c1)N(CC(=O)N1CCN(S(C)(=O)=O)CC1)CCn1c-2c(C2CCCCC2)c2ccc(C(=O)O)cc21 [Example 1-571, 13-cyclohexyl-5-[2-(4-methanesulfonylpiperazin-1-yl)-2-oxoethyl]-3-methyl-6,7-dihydro-5H-benzo[5,6][1,4]diazepino[7,1-a]indole-10-carboxylic acid]	< 0.1
COC1CCN(C(=O)CN2CCn3c(c(C4CCCCC4)c4ccc(C(=O)O)cc43)-c3ccc(C)cc32)CC1 [Example 1-572, 13-cyclohexyl-5-[2-(4-methoxypiperidin-1-yl)-2-oxoethyl]-3-methyl-6,7-dihydro-5H-benzo[5,6][1,4]diazepino[7,1-a]indole-10-carboxylic acid]	< 0.1
CNC(=O)c1ccc2c(C3CCCCC3)c3n(c2c1)CCN(CC(=O)N1CCN(S(C)(=O)=O)CC1)c1cc(C)ccc1-3 [Example 1-573, N-methyl-13-cyclohexyl-5-[2-(4-methanesulfonylpiperazin-1-yl)-2-oxoethyl]-3-methyl-6,7-dihydro-5H-benzo[5,6][1,4]diazepino[7,1-a]indole-10-carboxamide]	< 0.1
Cc1ccc2c(c1)N(C)CCn1c-2c(C2CCCCC2)c2ccc(C(=O)O)cc21 [Example 1-574, 13-cyclohexyl-3,5-dimethyl-6,7-dihydro-5H-benzo[5,6][1,4]diazepino[7,1-a]indole-10-carboxylic acid]	< 0.1
CN(C)CCN1CCn2c(c(C3CCCCC3)c3ccc(C(=O)O)cc32)-c2ccc(OCCN3CCOC3=O)cc21 [Example 1-575, 13-cyclohexyl-5-(2-dimethylaminoethyl)-3-[2-(2-oxooxazolidin-3-yl)ethoxy]-6,7-dihydro-5H-benzo[5,6][1,4]diazepino[7,1-a]indole-10-carboxylic acid dihydrochloride]	< 0.1
CN(C)CCN1CCn2c(c(C3CCCCC3)c3ccc(C(=O)O)cc32)-c2ccc(OCCNCCO)cc21 [Example 1-576, 13-cyclohexyl-5-(2-dimethylaminoethyl)-3-[2-(2-hydroxyethylamino)ethoxy]-6,7-dihydro-5H-benzo[5,6][1,4]diazepino[7,1-a]indole-10-carboxylic acid trihydrochloride]	< 0.1
COc1cccc(COc2ccc3c(c2)N(CCN(C)C)CCn2c-3c(C3CCCCC3)c3ccc(C(=O)O)cc32)c1 [Example 1-577, 13-cyclohexyl-5-(2-dimethylaminoethyl)-3-(3-methoxybenzyloxy)-6,7-dihydro-5H-benzo[5,6][1,4]diazepino[7,1-a]indole-10-carboxylic acid dihydrochloride]	< 0.1
CN(C)CCN1CCn2c(c(C3CCCCC3)c3ccc(C(=O)O)cc32)-c2ccc(OCc3cccc(N)c3)cc21 [Example 1-578, 3-(3-aminobenzyloxy)-13-cyclohexyl-5-(2-dimethylaminoethyl)-6,7-dihydro-5H-benzo[5,6][1,4]diazepino[7,1-a]indole-10-carboxylic acid trihydrochloride]	< 0.1
CN(C)CCN1CCn2c(c(C3CCCCC3)c3ccc(C(=O)O)cc32)-c2ccc(OCc3cccc([N+](=O)[O-])c3)cc21 [Example 1-579, 13-cyclohexyl-5-(2-dimethylaminoethyl)-3-(3-nitrobenzyloxy)-6,7-dihydro-5H-benzo[5,6][1,4]diazepino[7,1-a]indole-10-carboxylic acid dihydrochloride]	< 0.1
COC(=O)N1CCC(CCN2CCn3c(c(C4CCCCC4)c4ccc(C(=O)O)cc43)-c3ccc(Cl)cc32)CC1 [Example 1-580, 3-chloro-13-cyclohexyl-5-[2-(1-methoxycarbonylpiperidin-4-yl)ethyl]-6,7-dihydro-5H-benzo[5,6][1,4]diazepino[7,1-a]indole-10-carboxylic acid]	< 0.1
Cc1ccc2c(c1)N(CCc1ccc(F)cc1)CCn1c-2c(C2CCCCC2)c2ccc(C(=O)O)cc21 [Example 1-581, 13-cyclohexyl-5-[2-(4-fluorophenyl)ethyl]-3-methyl-6,7-dihydro-5H-benzo[5,6][1,4]diazepino[7,1-a]indole-10-carboxylic acid]	< 0.1
CC(=O)Nc1cccc(COc2ccc3c(c2)N(CCN(C)C)CCn2c-3c(C3CCCCC3)c3ccc(C(=O)O)cc32)c1 [Example 1-582, 3-(3-acetylaminobenzyloxy)-13-cyclohexyl-5-(2-dimethylaminoethyl)-6,7-dihydro-5H-benzo[5,6][1,4]diazepino[7,1-a]indole-10-carboxylic acid dihydrochloride]	< 0.1
COC(=O)c1ccc2c(C3CCCCC3)c3n(c2c1)CCN(CCN(C)C)c1cc(OCc2cccc(C(=O)O)c2)ccc1-3 [Example 1-583, methyl 3-(3-carboxybenzyloxy)-13-cyclohexyl-5-(2-dimethylaminoethyl)-6,7-dihydro-5H-benzo[5,6][1,4]diazepino[7,1-a]indole-10-carboxylate dihydrochloride]	0.1 to 1
CN(C)CCN1CCn2c(c(C3CCCCC3)c3ccc(C(=O)O)cc32)-c2ccc(OCCCN3CCCCC3)cc21 [Example 1-584, 13-cyclohexyl-5-(2-dimethylaminoethyl)-3-[3-(piperidin-1-yl)propoxy]-6,7-dihydro-5H-benzo[5,6][1,4]diazepino[7,1-a]indole-10-carboxylic acid trihydrochloride]	< 0.1

Reference: patent publication US20070049593A1 (priority 2004, published 2007)
